Source: publication PMC8213057, “Targeting ALK2: An Open Science Approach to Developing Therapeutics for the Treatment of Diffuse Intrinsic Pontine Glioma” (Journal of Medicinal Chemistry, 2020)

How the values were obtained:
DYRK4 = biological target: T1, DYRK4 (Homo sapiens, UniProt Q9NR20); assay: biochemical; conditions: read-out: % enzyme activity, 1 μM; Run 1, Run 2
T1 sequence (Q9NR20 1-520): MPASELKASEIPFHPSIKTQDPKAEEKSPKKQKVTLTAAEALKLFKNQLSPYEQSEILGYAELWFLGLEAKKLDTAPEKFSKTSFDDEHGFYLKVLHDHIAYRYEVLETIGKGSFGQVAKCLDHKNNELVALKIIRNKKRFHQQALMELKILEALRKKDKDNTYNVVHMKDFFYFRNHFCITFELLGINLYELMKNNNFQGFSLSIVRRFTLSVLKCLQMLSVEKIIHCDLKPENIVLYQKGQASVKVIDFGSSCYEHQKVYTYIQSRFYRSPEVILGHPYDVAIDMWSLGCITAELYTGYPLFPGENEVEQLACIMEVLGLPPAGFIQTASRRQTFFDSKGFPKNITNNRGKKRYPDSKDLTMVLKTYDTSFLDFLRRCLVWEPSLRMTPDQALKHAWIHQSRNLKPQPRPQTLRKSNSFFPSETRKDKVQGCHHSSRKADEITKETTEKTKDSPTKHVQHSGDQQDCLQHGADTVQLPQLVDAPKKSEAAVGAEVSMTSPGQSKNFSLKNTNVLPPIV

FLT4/VEGFR3 = FLT4/VEGFR3 (Homo sapiens, UniProt P35916); conditions: 1 μM; Run 1, Run 2
GLK/MAP4K3 = biological target: T2, GLK/MAP4K3 (Homo sapiens, UniProt Q8IVH8); assay: biochemical; conditions: read-out: % enzyme activity, 1 μM; Run 1, Run 2
T2 sequence (Q8IVH8 1-894): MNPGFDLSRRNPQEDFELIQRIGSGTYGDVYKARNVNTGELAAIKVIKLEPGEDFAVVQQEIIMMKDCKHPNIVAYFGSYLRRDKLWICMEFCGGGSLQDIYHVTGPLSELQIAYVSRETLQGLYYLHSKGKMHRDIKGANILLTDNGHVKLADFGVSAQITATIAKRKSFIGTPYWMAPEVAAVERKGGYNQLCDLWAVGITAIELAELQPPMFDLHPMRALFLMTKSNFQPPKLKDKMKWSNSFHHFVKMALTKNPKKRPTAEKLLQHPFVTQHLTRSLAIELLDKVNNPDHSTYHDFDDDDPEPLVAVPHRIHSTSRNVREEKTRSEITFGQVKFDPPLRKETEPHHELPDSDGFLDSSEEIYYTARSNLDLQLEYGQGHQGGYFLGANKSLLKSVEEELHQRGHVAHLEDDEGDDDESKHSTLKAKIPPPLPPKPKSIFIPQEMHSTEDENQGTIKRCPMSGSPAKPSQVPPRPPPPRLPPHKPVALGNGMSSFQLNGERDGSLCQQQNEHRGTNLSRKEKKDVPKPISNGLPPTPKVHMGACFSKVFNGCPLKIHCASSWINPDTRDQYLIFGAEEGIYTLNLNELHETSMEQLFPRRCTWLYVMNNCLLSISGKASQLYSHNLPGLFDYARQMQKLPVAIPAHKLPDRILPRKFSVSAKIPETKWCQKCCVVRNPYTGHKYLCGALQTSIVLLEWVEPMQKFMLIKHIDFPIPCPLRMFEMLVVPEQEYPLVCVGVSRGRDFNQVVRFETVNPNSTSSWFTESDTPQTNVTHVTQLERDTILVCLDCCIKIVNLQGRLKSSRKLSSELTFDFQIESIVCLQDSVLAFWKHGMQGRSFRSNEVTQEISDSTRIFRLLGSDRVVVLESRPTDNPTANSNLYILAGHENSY

MUSK = biological target: T3, MUSK (Homo sapiens, UniProt O15146); assay: biochemical; conditions: read-out: % enzyme activity, 1 μM; Run 1, Run 2
T3 sequence (O15146 24-869): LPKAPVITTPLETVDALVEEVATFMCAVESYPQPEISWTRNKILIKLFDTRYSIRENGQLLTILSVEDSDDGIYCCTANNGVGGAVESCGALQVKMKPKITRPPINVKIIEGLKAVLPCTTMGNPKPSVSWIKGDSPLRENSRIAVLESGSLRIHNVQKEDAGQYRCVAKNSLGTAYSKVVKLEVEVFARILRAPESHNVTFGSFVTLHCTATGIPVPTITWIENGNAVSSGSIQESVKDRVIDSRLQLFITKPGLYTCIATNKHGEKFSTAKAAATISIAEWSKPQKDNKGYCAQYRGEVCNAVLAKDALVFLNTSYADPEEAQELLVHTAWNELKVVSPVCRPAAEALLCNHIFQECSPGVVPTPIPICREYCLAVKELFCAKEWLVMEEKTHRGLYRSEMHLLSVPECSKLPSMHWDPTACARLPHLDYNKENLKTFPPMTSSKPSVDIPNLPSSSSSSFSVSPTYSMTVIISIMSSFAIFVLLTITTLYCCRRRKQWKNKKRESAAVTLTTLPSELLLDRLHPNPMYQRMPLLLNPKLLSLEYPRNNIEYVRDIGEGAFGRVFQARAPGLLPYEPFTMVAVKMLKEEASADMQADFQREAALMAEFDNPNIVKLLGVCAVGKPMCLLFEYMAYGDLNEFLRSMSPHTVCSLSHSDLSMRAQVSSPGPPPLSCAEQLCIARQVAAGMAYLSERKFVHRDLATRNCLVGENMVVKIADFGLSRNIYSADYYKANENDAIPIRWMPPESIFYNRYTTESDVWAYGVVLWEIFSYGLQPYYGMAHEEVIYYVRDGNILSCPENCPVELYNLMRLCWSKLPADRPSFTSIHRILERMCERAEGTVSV

CDK4/cyclin D3 = CDK4/cyclin D3 (Homo sapiens, UniProt P11802); conditions: 1 μM; Run 1, Run 2
MEK1 = MEK1 (Homo sapiens, UniProt Q02750); conditions: 1 μM; Run 1, Run 2
PHKg1 = PHKg1 (Homo sapiens, UniProt Q16816); assay: biochemical; conditions: read-out: % enzyme activity, 1 μM; Run 1, Run 2
Chain of PHKg1 (Q16816 whole entry): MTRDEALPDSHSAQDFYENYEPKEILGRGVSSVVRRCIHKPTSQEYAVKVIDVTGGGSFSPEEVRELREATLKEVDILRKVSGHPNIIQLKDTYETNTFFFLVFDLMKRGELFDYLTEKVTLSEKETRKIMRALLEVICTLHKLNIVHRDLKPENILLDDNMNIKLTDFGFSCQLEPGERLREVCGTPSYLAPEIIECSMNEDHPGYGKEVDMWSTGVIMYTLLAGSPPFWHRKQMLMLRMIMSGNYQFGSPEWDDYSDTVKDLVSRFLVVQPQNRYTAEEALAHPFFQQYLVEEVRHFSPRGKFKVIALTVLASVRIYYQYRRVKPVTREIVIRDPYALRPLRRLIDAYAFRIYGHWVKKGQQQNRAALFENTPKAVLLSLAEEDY

Chain of FLT4/VEGFR3 (P35916 25-1363): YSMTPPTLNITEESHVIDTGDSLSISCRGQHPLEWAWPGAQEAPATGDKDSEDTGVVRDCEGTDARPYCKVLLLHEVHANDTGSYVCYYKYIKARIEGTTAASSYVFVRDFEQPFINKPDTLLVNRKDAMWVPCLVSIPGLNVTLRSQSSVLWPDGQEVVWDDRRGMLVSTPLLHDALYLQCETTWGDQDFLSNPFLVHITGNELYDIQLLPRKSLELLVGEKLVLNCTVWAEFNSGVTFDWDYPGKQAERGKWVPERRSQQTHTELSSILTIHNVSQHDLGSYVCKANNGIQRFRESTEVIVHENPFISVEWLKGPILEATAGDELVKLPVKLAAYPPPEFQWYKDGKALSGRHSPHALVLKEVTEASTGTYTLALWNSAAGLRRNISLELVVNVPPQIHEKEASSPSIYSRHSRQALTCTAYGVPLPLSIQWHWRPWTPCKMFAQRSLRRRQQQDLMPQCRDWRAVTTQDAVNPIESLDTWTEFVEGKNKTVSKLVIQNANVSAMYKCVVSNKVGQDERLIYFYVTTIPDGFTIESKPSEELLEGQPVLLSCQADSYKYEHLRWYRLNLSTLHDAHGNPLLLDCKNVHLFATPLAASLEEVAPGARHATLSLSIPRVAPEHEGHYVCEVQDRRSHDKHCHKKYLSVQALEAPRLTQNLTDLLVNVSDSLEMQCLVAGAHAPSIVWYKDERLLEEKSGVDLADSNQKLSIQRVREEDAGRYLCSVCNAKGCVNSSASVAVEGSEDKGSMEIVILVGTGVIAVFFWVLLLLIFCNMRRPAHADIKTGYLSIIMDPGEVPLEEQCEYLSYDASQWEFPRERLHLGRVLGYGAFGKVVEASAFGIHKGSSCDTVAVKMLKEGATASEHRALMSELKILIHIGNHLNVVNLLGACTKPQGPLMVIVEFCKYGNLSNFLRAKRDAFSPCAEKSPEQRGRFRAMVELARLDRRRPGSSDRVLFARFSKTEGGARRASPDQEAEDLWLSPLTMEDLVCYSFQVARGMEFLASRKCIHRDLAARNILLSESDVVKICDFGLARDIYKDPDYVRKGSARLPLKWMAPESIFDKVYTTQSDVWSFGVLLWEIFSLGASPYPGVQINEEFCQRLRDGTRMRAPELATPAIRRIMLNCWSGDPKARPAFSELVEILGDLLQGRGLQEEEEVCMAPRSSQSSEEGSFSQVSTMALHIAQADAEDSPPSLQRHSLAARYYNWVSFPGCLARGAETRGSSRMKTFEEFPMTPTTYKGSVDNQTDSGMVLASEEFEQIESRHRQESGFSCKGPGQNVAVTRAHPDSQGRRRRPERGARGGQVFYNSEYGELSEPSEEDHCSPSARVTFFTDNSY
Chain of MEK1 (Q02750 whole entry): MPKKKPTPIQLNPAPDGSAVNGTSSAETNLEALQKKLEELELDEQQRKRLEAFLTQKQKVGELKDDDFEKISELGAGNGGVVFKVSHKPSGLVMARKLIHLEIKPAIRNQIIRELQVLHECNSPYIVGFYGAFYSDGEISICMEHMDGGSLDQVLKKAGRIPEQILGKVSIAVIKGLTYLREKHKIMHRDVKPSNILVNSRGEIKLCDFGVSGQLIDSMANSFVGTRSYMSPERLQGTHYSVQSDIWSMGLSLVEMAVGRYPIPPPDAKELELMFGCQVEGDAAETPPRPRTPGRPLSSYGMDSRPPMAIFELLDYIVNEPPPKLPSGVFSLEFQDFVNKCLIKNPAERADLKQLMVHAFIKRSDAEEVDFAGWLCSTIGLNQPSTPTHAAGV
Chain of CDK4/cyclin D3 (P11802 whole entry): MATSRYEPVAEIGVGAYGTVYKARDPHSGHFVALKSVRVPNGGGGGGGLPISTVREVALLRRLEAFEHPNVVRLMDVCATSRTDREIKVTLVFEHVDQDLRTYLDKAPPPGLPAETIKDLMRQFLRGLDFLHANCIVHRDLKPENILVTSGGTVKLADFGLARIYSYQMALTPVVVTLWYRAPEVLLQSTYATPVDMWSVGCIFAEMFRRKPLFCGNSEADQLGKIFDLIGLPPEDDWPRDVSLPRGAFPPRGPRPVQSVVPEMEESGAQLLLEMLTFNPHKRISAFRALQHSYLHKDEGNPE
Chain of CDK4/cyclin D3 (P30281 whole entry partner): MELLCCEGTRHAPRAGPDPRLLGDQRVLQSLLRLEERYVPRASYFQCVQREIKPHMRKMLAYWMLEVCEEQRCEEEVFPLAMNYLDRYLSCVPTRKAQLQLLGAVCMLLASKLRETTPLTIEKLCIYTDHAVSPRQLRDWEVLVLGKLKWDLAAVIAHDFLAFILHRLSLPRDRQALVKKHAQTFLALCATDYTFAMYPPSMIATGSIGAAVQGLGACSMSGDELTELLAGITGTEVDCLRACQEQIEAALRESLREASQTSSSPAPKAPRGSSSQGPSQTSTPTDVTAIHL

Row | SMILES | remaining activity at 1 µM (DYRK4) [%] | % enzyme activity (FLT4/VEGFR3) [%] | remaining activity at 1 µM (GLK/MAP4K3) [%] | remaining activity at 1 µM (MUSK) [%] | % enzyme activity (CDK4/cyclin D3) [%] | % enzyme activity (MEK1) [%] | remaining activity at 1 µM (PHKg1) [%]
1 | COc1cc(-c2cncc(-c3ccc(N4CCN(C)CC4)cc3)c2C)cc(F)c1C(N)=O [Compound 26a, 2-Fluoro-6-methoxy-4-(4-methyl-5-(4-(4-methylpiperazin-1-yl)phenyl)pyridin-3-yl)benzamide] | 103 | 97.81 | 88.4 | 92.8 | 96.96 | 97.44 | 85.6
2 | COc1cc(-c2cncc(-c3ccc(N4C[C@@H](C)N(C)[C@@H](C)C4)cc3)c2C)cc(F)c1C(N)=O [Compound 26c, 2-Fluoro-6-methoxy-4-(4-methyl-5-(4-((3R,5S)-3,4,5-trimethylpiperazin-1-yl)phenyl)pyridin-3-yl)benzamide] | 101 | 96.61 | 90.3 | 92.2 | 95.54 | 93.40 | 97
